Experimental data: the NIST ThermoML archive (doi:10.1016/j.jct.2005.03.016)

Test: xn = mol fraction of the nth substance listed
Details: Liquid, Vibrating tube method

CC1CCCCC1 [methylcyclohexane] + CCO
mass density [kg/m3]
Details	100 kPa	5000 kPa	10000 kPa	15000 kPa	20000 kPa	25000 kPa	30000 kPa	35000 kPa	40000 kPa	45000 kPa
293.15 K, x2 = 0.75	–	–	–	–	–	–	–	–	–	810
293.15 K, x2 = 0.875	–	–	–	–	–	–	–	–	–	814.6
303.15 K, x2 = 0	760.4	764.7	768.9	772.8	776.6	780.2	783.7	787	790.2	793.3
303.15 K, x2 = 0.052	760.1	764.4	768.6	772.6	776.5	780.1	783.6	786.9	790.1	793.2
303.15 K, x2 = 0.125	760.1	764.4	768.6	772.7	776.5	780.2	783.6	787	790.3	793.4
303.15 K, x2 = 0.25	760.7	765.1	769.4	773.4	777.3	781	784.5	787.9	791.2	794.3
303.15 K, x2 = 0.375	761.9	766.3	770.6	774.7	778.6	782.3	785.8	789.2	792.5	795.7
303.15 K, x2 = 0.5	763.6	768	772.3	776.4	780.3	784	787.6	791	794.3	797.4
303.15 K, x2 = 0.625	765.8	770.2	774.5	778.6	782.5	786.3	789.9	793.3	796.6	799.8
303.15 K, x2 = 0.75	768.9	773.3	777.7	781.8	785.7	789.4	793.1	796.5	799.8	803
303.15 K, x2 = 0.875	773.5	777.9	782.3	786.4	790.3	794	797.6	801.1	804.4	807.6
313.15 K, x2 = 0	751.7	756.2	760.7	764.8	768.8	772.7	776.3	779.8	783.1	786.4
313.15 K, x2 = 0.052	751.1	755.7	760.1	764.4	768.4	772.2	775.9	779.4	782.8	786.1
313.15 K, x2 = 0.125	751	755.7	760.2	764.5	768.5	772.4	776.1	779.6	783	786.3
313.15 K, x2 = 0.25	751.6	756.3	760.9	765.2	769.3	773.2	776.9	780.5	783.9	787.2
313.15 K, x2 = 0.375	752.7	757.4	762	766.4	770.5	774.4	778.1	781.7	785.2	788.5
313.15 K, x2 = 0.5	754.4	759.1	763.7	768.1	772.2	776.1	779.9	783.5	786.9	–
313.15 K, x2 = 0.625	756.7	761.4	766	770.4	774.5	778.4	782.2	785.8	789.3	–
313.15 K, x2 = 0.75	759.9	764.6	769.2	773.6	777.7	781.6	785.4	789	792.5	–
313.15 K, x2 = 0.875	764.7	769.3	773.9	778.3	782.4	786.3	790.1	793.7	797.1	–
